Reference: US20080171657A1, “5,6-Dialkyl-7-Aminoazolopyrimidines, Their Preparation and Their Use for Controlling Harmful Fungi, and Compositions Comprising These Compounds” (Basf Aktiengesellschaft, priority 2005, published 2008)

Experiments:
[1] = system: Puccinia recondita; assay: Protective activity against Puccinia recondita on wheat (brown rust of wheat); type: in vivo; conditions: comparison to closest prior art; concentration not given; untreated 90
Procedure: The active compounds were prepared as a stock solution comprising 25 mg of active compound which was made up to 10 ml using a mixture of acetone and/or DMSO and the emulsifier Uniperol® EL (wetting agent having emulsifying and dispersing action based on ethoxylated alkylphenols) in a volume ratio of solvent/emulsifier of 99/1. The mixture was then made up to 100 ml with water. This stock solution was diluted with the solvent/emulsifier/water mixture described to the concentration of active compound stated below. Protective Activity Against Puccinia recondita on Wheat (brown Rust of Wheat) Leaves of potted wheat seedlings of the cultivar “Kanzler” were sprayed to runoff point with an aqueous suspension having the concentration of active compounds stated below. The next day, the treated plants were inoculated with a spore suspension of brown rust of wheat (Puccinia recondite). The plants were then placed in a chamber with high atmospheric humidity (90 to 95%) at 20 to 22° C. for 24 hours. During this time, the spores germinated and the germ tubes penetrated into the leaf tissue. The next day, the test plants were returned to the greenhouse and cultivated at temperatures between 20 and 22° C. and 65 to 70% relative atmospheric humidity for a further 7 days. The extent of the rust fungus development on the leaves was then determined visually.

melting point [°C]	SMILES	Infection in % [1] [%]
–	CCCCCc1c(CCC)nc2cc(C)nn2c1N [compound 24, reference compound]	40
132 to 134	CCCCCCc1c(CCC)nc2cc(C)nn2c1N [I-1]	20
